Laboratory results reported in ChEMBL document CHEMBL6134864, “Discovery of FLT3-ITD Inhibitor Clifutinib: A Novel Biphenylacetylene Urea Derivative in Clinical Trials for the Treatment of Relapsed/Refractory FLT3-ITD+ Acute Myeloid Leukemia” (J Med Chem, 2025).
Activity calls are given as the source filed them. No cut-off for these calls is given here.

Columns and labels:
[1] = system: BaF3; assay: Antiproliferative activity against wild type mouse BaF3 cells assessed as inhibition of cell growth incubated for 72 hrs by celltiter-glo luminescent cell viability assay; type: functional, cell-based; settings: BaF3, 72 h
[2] = Tmax in mouse plasma at 10 mg/kg, po measured up to 24 hrs by LC-MS/MS analysis; type: ADME, organism-based
[3] = system: NCI-H226; assay: cells; settings: Homo sapiens, NCI-H226, 72 h
Description: Antiproliferative activity against human NCI-H226 cells assessed as inhibition of cell growth incubated for 72 hrs by celltiter-glo luminescent cell viability assay

[4] = AUC last in dog plasma at 1 mg/kg, iv measured up to 24 hrs by LC-MS/MS analysis; type: ADME, organism-based, Canis lupus familiaris
[5] = Cmax in dog plasma at 1 mg/kg, iv measured up to 24 hrs by LC-MS/MS analysis; type: ADME, organism-based, Canis lupus familiaris
[6] = Toxicity in NOD/SCID mouse assessed as observable signs of toxicity at 0.5 to 4.5 mg/kg/day, po administered for 21 days and measured for 31 days post dose; type: organism-based; settings: in vivo, 504 h, dose 0.5-4.5 mg/kg/day, time 21 day
[7] = target: Discoidin domain-containing receptor 2 (Homo sapiens, UniProt Q16832, T654M); assay: Inhibition of human DDR2 T654M mutant by biochemical kinase binding assay
Discoidin domain-containing receptor 2, sequence (Q16832 22-855 T654M limits assumed): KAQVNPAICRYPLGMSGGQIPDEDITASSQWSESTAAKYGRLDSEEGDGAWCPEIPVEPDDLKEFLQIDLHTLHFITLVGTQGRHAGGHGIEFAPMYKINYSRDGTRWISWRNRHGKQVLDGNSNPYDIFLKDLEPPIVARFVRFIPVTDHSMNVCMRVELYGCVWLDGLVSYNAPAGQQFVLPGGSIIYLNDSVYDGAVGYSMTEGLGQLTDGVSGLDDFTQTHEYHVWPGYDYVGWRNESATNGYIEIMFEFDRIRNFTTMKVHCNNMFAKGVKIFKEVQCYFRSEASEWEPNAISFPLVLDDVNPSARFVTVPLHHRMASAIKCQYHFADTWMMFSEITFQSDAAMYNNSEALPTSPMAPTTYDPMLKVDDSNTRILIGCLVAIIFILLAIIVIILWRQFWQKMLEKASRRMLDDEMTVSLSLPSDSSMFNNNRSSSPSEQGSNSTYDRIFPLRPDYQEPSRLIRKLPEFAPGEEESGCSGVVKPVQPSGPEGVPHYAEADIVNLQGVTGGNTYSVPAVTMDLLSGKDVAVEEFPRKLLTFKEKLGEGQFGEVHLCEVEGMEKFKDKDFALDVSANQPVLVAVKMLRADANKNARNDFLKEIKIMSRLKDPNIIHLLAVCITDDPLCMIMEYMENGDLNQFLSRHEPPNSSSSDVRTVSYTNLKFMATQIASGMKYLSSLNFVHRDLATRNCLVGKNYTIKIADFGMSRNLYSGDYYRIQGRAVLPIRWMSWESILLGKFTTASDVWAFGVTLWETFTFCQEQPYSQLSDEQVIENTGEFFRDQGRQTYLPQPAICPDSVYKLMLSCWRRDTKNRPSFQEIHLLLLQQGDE

[8] = system: PC-3; assay: cells; settings: Homo sapiens, PC-3, 72 h
Description: Antiproliferative activity against human PC-3 cells assessed as inhibition of cell growth incubated for 72 hrs by celltiter-glo luminescent cell viability assay

[9] = system: BaF3; assay: cells; settings: Mus musculus, BaF3, 72 h
Description: Antiproliferative activity against mouse BaF3 cells harbouring FLT3-D83HY mutant assessed as inhibition of cell growth incubated for 72 hrs by celltiter-glo luminescent cell viability assay

[10] = target: Cytochrome P450 2C9 (Homo sapiens, UniProt P11712); assay: Inhibition of CYP2C9 in human liver microsomes by UPLC-MS/MS analysis; type: ADME, Microsome
Cytochrome P450 2C9, sequence (P11712 whole entry): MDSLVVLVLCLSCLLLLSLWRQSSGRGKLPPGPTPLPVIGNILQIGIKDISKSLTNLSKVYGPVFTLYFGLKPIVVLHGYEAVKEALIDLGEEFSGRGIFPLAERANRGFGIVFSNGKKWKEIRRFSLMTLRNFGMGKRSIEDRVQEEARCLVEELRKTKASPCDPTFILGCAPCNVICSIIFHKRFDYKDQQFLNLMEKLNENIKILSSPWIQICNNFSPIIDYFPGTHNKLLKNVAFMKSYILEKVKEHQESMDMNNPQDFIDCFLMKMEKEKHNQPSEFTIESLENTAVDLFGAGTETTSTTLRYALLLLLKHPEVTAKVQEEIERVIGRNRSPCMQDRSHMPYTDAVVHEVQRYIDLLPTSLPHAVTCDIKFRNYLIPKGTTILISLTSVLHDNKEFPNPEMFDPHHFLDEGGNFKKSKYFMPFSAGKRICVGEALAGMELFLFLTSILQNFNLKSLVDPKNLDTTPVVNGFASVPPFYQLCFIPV

[11] = Half life in dog plasma at 5 mg/kg, po measured up to 24 hrs by LC-MS/MS analysis; type: ADME, organism-based, Canis lupus familiaris
[12] = AUC last in dog plasma at 5 mg/kg, po measured up to 24 hrs by LC-MS/MS analysis; type: ADME, organism-based, Canis lupus familiaris
[13] = system: MOLM-13; assay: Antitumor activity against human MOLM-13 cells xenografted in NOD/SCID mouse model assessed as tumor growth inhibition at 4.5 mg/kg/day, po by caliper analysis relative to control; type: functional; settings: read-out: TGI
[14] = Clearance in monkey plasma at 1 mg/kg, iv measured up to 24 hrs by LC-MS/MS analysis; type: ADME, organism-based, Macaca mulatta; settings: rhesus monkey
[15] = system: BaF3; assay: Antiproliferative activity against mouse BaF3 cells harbouring FLT3-D835V mutant assessed as inhibition of cell growth incubated for 72 hrs by celltiter-glo luminescent cell viability assay; type: functional, cell-based; settings: BaF3, 72 h
[16] = target: Cytochrome P450 3A4 (Homo sapiens, UniProt P08684); assay: Inhibition of CYP3A4 in human liver microsomes by UPLC-MS/MS analysis; type: ADME, Microsome
Cytochrome P450 3A4, sequence (P08684 whole entry): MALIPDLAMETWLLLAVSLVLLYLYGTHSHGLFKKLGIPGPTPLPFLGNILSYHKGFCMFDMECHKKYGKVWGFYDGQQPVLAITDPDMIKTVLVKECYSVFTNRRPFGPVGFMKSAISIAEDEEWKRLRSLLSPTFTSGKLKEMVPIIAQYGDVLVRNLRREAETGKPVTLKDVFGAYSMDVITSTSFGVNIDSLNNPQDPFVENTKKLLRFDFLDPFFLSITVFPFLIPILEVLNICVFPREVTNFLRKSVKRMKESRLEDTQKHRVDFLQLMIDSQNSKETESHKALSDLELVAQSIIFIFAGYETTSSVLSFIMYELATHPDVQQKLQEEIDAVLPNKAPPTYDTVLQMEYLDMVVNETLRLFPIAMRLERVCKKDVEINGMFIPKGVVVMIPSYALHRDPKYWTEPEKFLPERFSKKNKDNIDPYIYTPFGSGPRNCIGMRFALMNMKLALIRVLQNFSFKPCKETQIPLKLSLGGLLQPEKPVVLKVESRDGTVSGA

[17] = system: MOLM-13; assay: Antitumor activity against human MOLM-13 cells xenografted in NOD/SCID mouse model assessed as tumor growth inhibition at […], po in presence of Ara-C by caliper analysis relative to control; type: functional; settings: dose 1.5 mg/kg/day, read-out: TGI
[18] = target: Cytochrome P450 2C8 (Homo sapiens, UniProt P10632); assay: Inhibition of CYP2C8 in human liver microsomes by UPLC-MS/MS analysis; type: ADME, Microsome
[19] = target: Mast/stem cell growth factor receptor Kit (Homo sapiens, UniProt P10721); assay: Inhibition of human KIT by biochemical kinase binding assay
Mast/stem cell growth factor receptor Kit, sequence (P10721 whole entry): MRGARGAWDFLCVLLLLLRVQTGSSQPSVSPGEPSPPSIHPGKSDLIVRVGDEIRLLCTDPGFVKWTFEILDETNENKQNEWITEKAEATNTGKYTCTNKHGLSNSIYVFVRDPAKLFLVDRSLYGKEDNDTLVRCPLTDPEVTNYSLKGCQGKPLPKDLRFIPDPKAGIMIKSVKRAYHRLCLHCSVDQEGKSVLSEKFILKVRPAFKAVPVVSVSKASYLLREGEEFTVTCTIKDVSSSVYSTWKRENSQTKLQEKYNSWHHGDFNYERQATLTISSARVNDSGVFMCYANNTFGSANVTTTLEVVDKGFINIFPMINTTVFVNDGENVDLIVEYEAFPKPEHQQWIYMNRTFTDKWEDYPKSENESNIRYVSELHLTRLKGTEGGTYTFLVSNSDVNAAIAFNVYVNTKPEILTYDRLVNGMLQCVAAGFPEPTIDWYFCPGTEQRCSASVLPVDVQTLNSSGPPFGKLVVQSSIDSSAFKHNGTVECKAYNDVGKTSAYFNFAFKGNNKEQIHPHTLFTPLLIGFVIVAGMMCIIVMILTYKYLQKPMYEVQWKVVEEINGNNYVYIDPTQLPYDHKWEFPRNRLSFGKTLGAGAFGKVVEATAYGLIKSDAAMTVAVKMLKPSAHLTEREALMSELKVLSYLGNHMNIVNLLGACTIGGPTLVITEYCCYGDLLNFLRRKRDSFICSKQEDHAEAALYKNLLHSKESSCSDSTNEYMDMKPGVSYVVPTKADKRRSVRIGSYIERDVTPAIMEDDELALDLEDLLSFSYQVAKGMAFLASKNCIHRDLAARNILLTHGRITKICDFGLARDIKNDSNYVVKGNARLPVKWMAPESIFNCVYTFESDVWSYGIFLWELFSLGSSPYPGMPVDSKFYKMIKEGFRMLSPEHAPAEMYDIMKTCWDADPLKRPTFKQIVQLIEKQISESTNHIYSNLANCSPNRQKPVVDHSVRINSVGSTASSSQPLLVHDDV

[20] = system: Receptor-type tyrosine-protein kinase FLT3 (Homo sapiens), P36888 [UNDEFINED MUTATION]; assay: Inhibition of FLT3 in human MV4-11 cells harbouring FLT3-ITD mutant assessed as effect on FLT3 protein level at 1 to 1000 nM measured after 2 hrs by Western blot analysis; type: cell-based; settings: dose 1-1000 nM
Receptor-type tyrosine-protein kinase FLT3 (Homo sapiens), P36888 [UNDEFINED MUTATION], sequence (P36888 whole entry, looked up, stated change not applied): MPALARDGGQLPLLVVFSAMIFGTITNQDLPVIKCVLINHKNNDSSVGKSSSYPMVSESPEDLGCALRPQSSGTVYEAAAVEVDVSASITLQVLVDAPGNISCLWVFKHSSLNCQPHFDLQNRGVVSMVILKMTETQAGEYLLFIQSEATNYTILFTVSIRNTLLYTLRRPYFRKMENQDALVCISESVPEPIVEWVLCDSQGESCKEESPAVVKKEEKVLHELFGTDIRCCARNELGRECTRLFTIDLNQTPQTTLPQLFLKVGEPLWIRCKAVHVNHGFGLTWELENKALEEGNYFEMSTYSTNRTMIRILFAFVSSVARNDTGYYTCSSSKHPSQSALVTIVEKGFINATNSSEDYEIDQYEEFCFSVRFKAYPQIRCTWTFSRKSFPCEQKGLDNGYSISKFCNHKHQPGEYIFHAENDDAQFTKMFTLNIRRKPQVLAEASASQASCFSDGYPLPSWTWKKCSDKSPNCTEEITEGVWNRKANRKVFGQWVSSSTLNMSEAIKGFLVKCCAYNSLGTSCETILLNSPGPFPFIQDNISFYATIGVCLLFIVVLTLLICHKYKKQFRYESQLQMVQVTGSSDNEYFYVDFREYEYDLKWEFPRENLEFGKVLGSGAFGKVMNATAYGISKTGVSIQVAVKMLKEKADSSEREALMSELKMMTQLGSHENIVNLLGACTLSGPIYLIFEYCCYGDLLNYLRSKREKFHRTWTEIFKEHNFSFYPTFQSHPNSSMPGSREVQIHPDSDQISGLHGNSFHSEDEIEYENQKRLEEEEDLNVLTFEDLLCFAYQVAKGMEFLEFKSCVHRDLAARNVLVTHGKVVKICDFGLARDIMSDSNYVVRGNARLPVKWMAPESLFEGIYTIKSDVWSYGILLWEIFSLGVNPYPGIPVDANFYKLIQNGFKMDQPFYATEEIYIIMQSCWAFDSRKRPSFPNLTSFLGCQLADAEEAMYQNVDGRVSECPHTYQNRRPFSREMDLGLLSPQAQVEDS

[21] = AUC (0 to t) in NOD/SCID mouse tumor xenografted with human MV4-11 cells at 0.5 mg/kg, po measured up to 24 hrs by LC-MS/MS analysis; type: ADME, organism-based, Neoplasm
[22] = Tmax in monkey plasma at 5 mg/kg, po measured up to 24 hrs by LC-MS/MS analysis; type: ADME, organism-based, Macaca mulatta; settings: rhesus monkey
[23] = system: Receptor-type tyrosine-protein kinase FLT3 (Homo sapiens), P36888 [UNDEFINED MUTATION]; assay: Inhibition of FLT3 in human MV4-11 cells harbouring FLT3-ITD mutant assessed as inhibition of FLT3 phosphorylation level measured after 2 hrs by Western blot analysis; type: cell-based; settings: dose 1-1000 nM
[24] = system: BaF3; assay: Antiproliferative activity against mouse BaF3 cells harbouring FLT3-ITD-D835Y mutant assessed as inhibition of cell growth incubated for 72 hrs by celltiter-glo luminescent cell viability assay; type: functional, cell-based; settings: BaF3, 72 h
[25] = AUC last in monkey plasma at 1 mg/kg, iv measured up to 24 hrs by LC-MS/MS analysis; type: ADME, organism-based, Macaca mulatta; settings: rhesus monkey, in vivo
[26] = system: HCT-116; assay: cells; settings: Homo sapiens, HCT-116, 72 h
Description: Antiproliferative activity against human HCT-116 cells assessed as inhibition of cell growth incubated for 72 hrs by celltiter-glo luminescent cell viability assay

[27] = system: BaF3; assay: Antiproliferative activity against mouse BaF3 cells harbouring FLT3-ITD assessed as inhibition of cell growth incubated for 72 hrs by celltiter-glo luminescent cell viability assay; type: functional, cell-based; settings: BaF3, 72 h
[28] = target: Cytochrome P450 2B6 (Homo sapiens, UniProt P20813); assay: Inhibition of CYP2B6 in human liver microsomes by UPLC-MS/MS analysis; type: ADME, Microsome
Cytochrome P450 2B6, sequence (P20813 whole entry): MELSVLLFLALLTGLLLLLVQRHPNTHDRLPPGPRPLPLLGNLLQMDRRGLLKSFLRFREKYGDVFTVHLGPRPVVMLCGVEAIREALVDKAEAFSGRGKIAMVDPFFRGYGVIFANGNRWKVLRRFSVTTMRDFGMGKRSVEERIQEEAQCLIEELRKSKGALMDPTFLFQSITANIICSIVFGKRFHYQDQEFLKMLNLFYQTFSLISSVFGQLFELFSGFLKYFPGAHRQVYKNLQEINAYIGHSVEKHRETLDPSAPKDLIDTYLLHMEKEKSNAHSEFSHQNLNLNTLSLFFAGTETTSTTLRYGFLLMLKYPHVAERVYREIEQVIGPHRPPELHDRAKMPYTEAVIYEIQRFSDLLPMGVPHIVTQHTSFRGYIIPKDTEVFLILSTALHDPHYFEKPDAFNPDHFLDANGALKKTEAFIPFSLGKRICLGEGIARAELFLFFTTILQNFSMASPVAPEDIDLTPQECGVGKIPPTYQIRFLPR

[29] = target: Cytochrome P450 2C19 (Homo sapiens, UniProt P33261); assay: Inhibition of CYP2C19 in human liver microsomes by UPLC-MS/MS analysis; type: ADME, Microsome
Cytochrome P450 2C19, sequence (P33261 whole entry): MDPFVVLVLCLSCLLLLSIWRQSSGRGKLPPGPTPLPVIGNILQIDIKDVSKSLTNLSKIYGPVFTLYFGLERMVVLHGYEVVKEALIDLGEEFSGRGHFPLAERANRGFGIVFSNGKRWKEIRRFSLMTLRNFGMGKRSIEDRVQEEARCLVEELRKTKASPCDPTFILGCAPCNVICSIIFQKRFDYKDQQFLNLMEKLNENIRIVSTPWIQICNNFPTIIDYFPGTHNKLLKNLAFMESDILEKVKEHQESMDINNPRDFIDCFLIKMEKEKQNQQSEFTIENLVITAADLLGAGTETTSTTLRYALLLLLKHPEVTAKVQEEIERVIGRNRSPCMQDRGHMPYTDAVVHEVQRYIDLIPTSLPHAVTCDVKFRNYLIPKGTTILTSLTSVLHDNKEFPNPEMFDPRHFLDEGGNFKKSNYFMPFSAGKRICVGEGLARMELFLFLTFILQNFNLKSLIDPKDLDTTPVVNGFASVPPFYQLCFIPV

[30] = system: Receptor-type tyrosine-protein kinase FLT3 (Homo sapiens), P36888 [UNDEFINED MUTATION]; assay: Inhibition of FLT3 in human MV4-11 cells harbouring FLT3-ITD mutant assessed as effect on AKT protein level at 1 to 1000 nM measured after 2 hrs by Western blot analysis; type: cell-based; settings: dose 1-1000 nM
[31] = target: Receptor-type tyrosine-protein kinase FLT3 (Homo sapiens) (UniProt P36888); assay: Inhibition of FLT3 in human MV4-11 cells harbouring FLT3-ITD mutant assessed as effect on STAT5 protein level at 1 to 1000 nM measured after 2 hrs by Western blot analysis; type: cell-based; settings: dose 1-1000 nM
Receptor-type tyrosine-protein kinase FLT3 (Homo sapiens), sequence (P36888 whole entry): as the sequence (P36888 whole entry, looked up, stated change not applied) above

[32] = system: NCI-H460; assay: cells; settings: Homo sapiens, NCI-H460, 72 h
Description: Antiproliferative activity against human NCI-H460 cells assessed as inhibition of cell growth incubated for 72 hrs by celltiter-glo luminescent cell viability assay

[33] = system: RPMI-8226; assay: cells; settings: Homo sapiens, RPMI-8226, 72 h
Description: Antiproliferative activity against human RPMI-8226 cells assessed as inhibition of cell growth incubated for 72 hrs by celltiter-glo luminescent cell viability assay

[34] = Cmax in mouse plasma at 2 mg/kg, iv measured up to 24 hrs by LC-MS/MS analysis; type: ADME, organism-based
[35] = system: BaF3; assay: Antiproliferative activity against mouse BaF3 cells harbouring FLT3-ITD-F691I mutant assessed as inhibition of cell growth incubated for 72 hrs by celltiter-glo luminescent cell viability assay; type: functional, cell-based; settings: BaF3, 72 h
[36] = system: COLO 205; assay: cells; settings: Homo sapiens, COLO 205, 72 h
Description: Antiproliferative activity against human COLO 205 cells assessed as inhibition of cell growth incubated for 72 hrs by celltiter-glo luminescent cell viability assay

[37] = Cmax in NOD/SCID mouse plasma xenografted with human MV4-11 cells at 0.5 mg/kg, po measured up to 24 hrs by LC-MS/MS analysis; type: ADME, organism-based
[38] = Cmax in NOD/SCID mouse plasma xenografted with human MV4-11 cells at […], po measured up to 24 hrs by LC-MS/MS analysis; type: ADME, organism-based; settings: dose 1.5 mg/kg
[39] = Tmax in NOD/SCID mouse plasma xenografted with human MV4-11 cells at 4.5 mg/kg, po measured up to 24 hrs by LC-MS/MS analysis; type: ADME, organism-based

In the case of `CC(C)(C)c1cc(NC(=O)Nc2ccc(C#Cc3ccc(OCCCN4CCOCC4)cc3)cc2)no1`, the IC50 [1] is reported as greater than 1000 nM, the Tmax [2] is reported as 0.5 h and the IC50 [3] is reported as greater than 10000 nM. For the same molecule, the AUC(0-t) at 24 h [4] was 1290 ng·h/mL, the Cmax [5] was 633 ng/mL and the Activity [6] was “Non-toxic”. The IC50 [7] was 422 nM, the IC50 [8] was 7000 nM and the IC50 [9] was 10.9 nM. It also gave an IC50 [10] greater than 33300 nM, a half-life [11] of 7.41 h and an AUC(0-t) at 24 h [12] of 4870 ng·h/mL. The inhibition in vivo at 4.5 mg/kg/day [13] was 94%, the clearance [14] was 1.35 mL/min/kg and the IC50 [15] was 37.4 nM. The IC50 [16] was greater than 33300 nM, the inhibition in vivo at […] [17] was 80% and the IC50 [18] was greater than 33300 nM. For the same molecule, the IC50 [19] was 1790 nM, the inhibition [20] was “inactive” and the AUC(0-t) at 24 h [21] was 380 ng·h/mL. The Tmax [22] was 4 h, the inhibition [23] was “Dose-dependent-effect” and the IC50 [24] was 47.6 nM. For the same molecule, the AUClast [25] was 10100 ng·h/mL, the IC50 [26] was 8500 nM and the IC50 [27] was 0.9 nM. The IC50 [28] was greater than 33300 nM, the IC50 [29] was greater than 33300 nM and the inhibition [30] was “inactive”. For the same molecule, the inhibition [31] was “inactive”, the IC50 [32] was 7800 nM and the IC50 [33] was greater than 10000 nM. For the same molecule, the Cmax [34] was 1820 ng/mL, the IC50 [35] was 154 nM and the IC50 [36] was greater than 10000 nM. It also gave a Cmax [37] of 20.5 ng/mL, a Cmax at 24 h [38] of 52.8 ng/mL and a Tmax [39] of 1 h.
